# Tested on: GD and PD patient-derived induced pluripotent stem cell (iPSC) neurons
# Experiment: not given
# Conditions: Zunke, F. et al., Neuron 2018; cited from earlier work
row,SMILES,formation of pathological α-synuclein aggregates
1,"CCCCCCCC(=O)N[C@H](CN1CCCC1)[C@H](O)c1ccc2c(c1)OCCO2 [eliglustat, Eliglustat]",reverse the formation of pathological α-synuclein aggregates

# Molecular target: glucosylceramide synthase (GCS) enzyme in Golgi preparations from human A375 malignant melanoma skin cells (Homo sapiens (Human), UniProt Q16739)
# Sequence (Q16739 whole entry): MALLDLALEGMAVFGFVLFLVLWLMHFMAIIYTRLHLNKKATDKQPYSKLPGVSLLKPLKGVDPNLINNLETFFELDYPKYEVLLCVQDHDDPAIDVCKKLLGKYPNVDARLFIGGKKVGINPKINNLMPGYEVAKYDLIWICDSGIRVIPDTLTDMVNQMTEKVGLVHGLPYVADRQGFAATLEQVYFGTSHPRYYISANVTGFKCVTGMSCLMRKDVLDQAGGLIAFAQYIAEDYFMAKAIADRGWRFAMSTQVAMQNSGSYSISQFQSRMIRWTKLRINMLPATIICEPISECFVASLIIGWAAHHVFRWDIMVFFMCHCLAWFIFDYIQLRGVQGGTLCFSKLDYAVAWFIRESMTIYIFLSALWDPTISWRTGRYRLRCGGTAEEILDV
# Experiment: UDP-Glo glucosylceramide synthase biochemical assay
# Conditions: 1.5 μg crude golgi preparation; C6 ceramide and UDP-glucose at 2×Km; 20 h incubation at room temperature; luminescence
# Source text: UDP-Glo™ Glucosylceramide Synthase Biochemical Assay
# A UDP-Glo™ glucosylceramide synthase biochemical assay was utilized to evaluate the effect of test compounds on the activity of endogenous levels of GCS enzyme contained within Golgi preparations isolated from human A375 malignant melanoma skin cells. The UDP-Glo™ glucosylceramide synthase assay uses UDP-Glucose as a nucleotide-glycosyl donor and ceramide as substrate acceptor molecules. In the reaction, glucosylceramide synthase (GCS) transfers glucose from UDP-Glucose to ceramide. Glucosylceramide and UDP are released as products.
# Using Promega's UDP-Glo™ Glycosyltransferase assay kit (Promega Corporation, Madison, WI, USA (Promega)), GCS activity was indirectly measured by detecting the amount of UDP produced. An aliquot of GCS enzyme (1.5 μg crude golgi preparation, total protein) and titrated test compound were aliquoted to each well and incubated for 30 minutes at room temperature. Substrate mixture was prepared by mixing C6 ceramide (Avanti Polar Lipids, Alabaster, AL USA (Avanti)) (micelles prepared at 0.6 mM in 0.6 mM DOPC) and UDP-glucose (20 μM; Promega), at concentrations equivalent to 2×Km, in assay buffer (25 mM HEPES (pH 7.5), 50 mM KCl, 5 mM MgCl2). An equivalent volume of substrate mixture was then added to each well. Following a 20 h incubation at room temperature to allow for GCS turnover of substrate, an equal volume of UDP detection reagent (Promega) was added to each well and incubated for an additional 75 minutes at room temperature to simultaneously convert the accumulated UDP product into ATP and generate light in a luciferase reaction. The generated light was detected using a luminometer. […] luminescence values (RLUs) were normalized to mean “min” and “max” effects, as determined on each plate. “Min” was defined as the mean of the values of the wells treated with vehicle (DMSO) and which represent 0% inhibition; “max” was defined as the mean of the values of the wells treated with a reference inhibitor and which represent the 100% effect. Values for % Emax and EC50 were determined by best-fitting the normalized data to a curve in Activity Base along a four-parameter logistic nonlinear regression (4PL) model (based on the Levenberg-Marquardt algorithm and defined by the equation below): […]
# where: n is 4PMin (bottom of the curve); m is 4PMax (top of the curve); i is IP (inflection point of curve); andp is slope. See Levenberg, K., “A Method for the Solution of Certain Problems in Least Squares”, Quart. Appl. Math. 2, (1944), pp 164-168 and Marquardt, D., “An Algorithm for Least Squares Estimation on Nonlinear Parameters”, SIAM J. Appl. Math. 11, (1963) pp 431-441.
row,SMILES,EC50
1,"O=C(N1CCN2CCC1CC2)n1nc(-c2ccc(F)cc2)c2c1C1CCC2C1 [Compound 14, (R,R) and (S,S)-(1,4-diazabicyclo[3.2.2]nonan-4-yl)(3-(4-fluorophenyl)-4,5,6,7-tetrahydro-1H-4,7-methanoindazol-1-yl)methanone]",1.2 nM
2,"COc1ccc(-c2nn(C(=O)N3CCN4CCC3CC4)c3c2CCOC3)cc1Cl [Compound 3, 1,4-diazabicyclo[3.2.2]nonan-4-yl(3-(3-chloro-4-methoxyphenyl)-4,5-dihydropyrano[3,4-c]pyrazol-1(7H)-yl)methanone]",1.4 nM
3,"O=C(N1CCN2CCC1CC2)n1nc(-c2ccc(F)cc2)c2c1COCC2 [Compound 1, 1,4-diazabicyclo[3.2.2]nonan-4-yl(3-(4-fluorophenyl)-4,5-dihydropyrano[3,4-c]pyrazol-1(7H)-yl)methanone]",5.1 nM
4,"O=C(N1CCN2CCC1CC2)n1nc(-n2cc(Cl)cn2)c2c1CCC2 [Compound 56, (1,4-diazabicyclo[3.2.2]nonan-4-yl)(3-(4-chloro-1H-pyrazol-1-yl)-5,6-dihydrocyclopenta[c]pyrazol-1(4H)-yl)methanone]",3 nM
5,"Cn1ncc2ccc(-c3nn(C(=O)N4CCN5CCC4CC5)c4c3CCC4)cc21 [Compound 22, 1,4-diazabicyclo[3.2.2]nonan-4-yl-[3-(1-methylindazol-6-yl)-5,6-dihydro-4H-cyclopenta[c]pyrazol-1-yl]methanone]",6.3 nM
6,"O=C(N1CCN2CCC1CC2)n1nc(-c2cc(Cl)ccc2F)c2c1COCC2 [Compound 29, (1,4-diazabicyclo[3.2.2]nonan-4-yl)(3-(5-chloro-2-fluorophenyl)-4,7-dihydropyrano[3,4-c]pyrazol-1(5H)-yl)methanone]",3.8 nM
7,"O=C(N1CCN2CCC1CC2)n1nc(-c2ccc(F)cc2)c2c1C1CC1CC2 (single isomer, unassigned) [Compound 10]",0.3 nM
8,"O=C(N1CCN2CCC1CC2)n1nc(-c2cc(Cl)c(F)cn2)c2c1COCC2 [Compound 49, (1,4-diazabicyclo[3.2.2]nonan-4-yl)(3-(4-chloro-5-fluoropyridin-2-yl)-4,7-dihydropyrano[3,4-c]pyrazol-1(5H)-yl)methanone]",8.3 nM

# Source: patent publication US20250026762A1, “FUSED PYRAZOLE UREA ANALOGS AS GLUCOSYLCERAMIDE SYNTHASE INHIBITORS” (Merck Sharp & Dohme LLC, priority 2021, published 2025)
